From patent US7326732B2, “EP2 receptor agonists” (Pharmagene Laboratories Limited, priority 2004, dated 2008)

What was measured:
human EP3 receptor = biological target: T1, human EP3 receptor (Homo sapiens, UniProt P43115); experiment: Binding ability to human EP receptors ([3H]PGE2 displacement), EP3; conditions: membranes expressing human EP3; [3H]PGE2 2.5 nM; Cheng-Prusoff; read-out: pKi (M) EP3 (converted)
T1 construct: expressed in transfected cells
T1 sequence (P43115 1-390): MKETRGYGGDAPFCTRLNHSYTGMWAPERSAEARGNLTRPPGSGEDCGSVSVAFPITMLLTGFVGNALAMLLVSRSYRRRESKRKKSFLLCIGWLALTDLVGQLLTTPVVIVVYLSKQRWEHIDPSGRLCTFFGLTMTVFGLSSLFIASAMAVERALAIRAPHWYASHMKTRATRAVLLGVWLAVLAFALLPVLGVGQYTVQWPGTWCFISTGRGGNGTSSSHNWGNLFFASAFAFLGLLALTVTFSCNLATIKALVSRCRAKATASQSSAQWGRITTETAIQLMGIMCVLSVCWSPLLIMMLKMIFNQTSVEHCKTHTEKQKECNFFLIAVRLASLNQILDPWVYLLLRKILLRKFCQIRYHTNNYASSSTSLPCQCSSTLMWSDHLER
Procedure: (§1) Membranes were prepared from cells stably transfected with human EP receptor cDNA. In brief, cells were cultured to confluency, scraped from culture flasks, and centrifuged (800 g, 8 minutes, 4° C.). Cells were twice washed in ice cold homogenisation buffer containing 10 mMTris-HCl, 1 mM EDTA.2Na, 250 mM sucrose, 1 mM PMSF, 0.3 mM indomethacin, pH 7.4, homogenised and re-centrifuged as before. The supernatant was stored on ice and pellets re-homogenised and re-spun. Supernatants were pooled and centrifuged at 40000 g, 10 minutes, 4° C. Resultant membrane pellets were stored at −80° C. until use. For assay, membranes expressing human EP4, EP3, EP2 or EP1 receptors were incubated in Millipore (MHVBN45) plates containing assay buffer, radiolabelled [^3H]PGE2 and 0.1 to 10 000 nM concentrations of compounds. Incubations were performed at suitable temperatures and for suitable times to allow equilibrium to be reached. Non-specific binding was determined in the presence of 10 uM PGE2. Bound and free radiolabel was separated by vacuum manifold filtration using appropriate wash buffers, and bound radiolabel was determined by scintillation counting. Constituents of each of the buffers are included in table 1 below. […] Raven Press, New York, 2nd edition.

human EP4 receptor = biological target: T2, human EP4 receptor (Homo sapiens, UniProt P35408); experiment: Binding ability to human EP receptors ([3H]PGE2 displacement), EP4; conditions: membranes expressing human EP4; [3H]PGE2 1 nM; Cheng-Prusoff; read-out: pKi (M) EP4 (converted)
T2 construct: expressed in transfected cells
T2 sequence (P35408 whole entry): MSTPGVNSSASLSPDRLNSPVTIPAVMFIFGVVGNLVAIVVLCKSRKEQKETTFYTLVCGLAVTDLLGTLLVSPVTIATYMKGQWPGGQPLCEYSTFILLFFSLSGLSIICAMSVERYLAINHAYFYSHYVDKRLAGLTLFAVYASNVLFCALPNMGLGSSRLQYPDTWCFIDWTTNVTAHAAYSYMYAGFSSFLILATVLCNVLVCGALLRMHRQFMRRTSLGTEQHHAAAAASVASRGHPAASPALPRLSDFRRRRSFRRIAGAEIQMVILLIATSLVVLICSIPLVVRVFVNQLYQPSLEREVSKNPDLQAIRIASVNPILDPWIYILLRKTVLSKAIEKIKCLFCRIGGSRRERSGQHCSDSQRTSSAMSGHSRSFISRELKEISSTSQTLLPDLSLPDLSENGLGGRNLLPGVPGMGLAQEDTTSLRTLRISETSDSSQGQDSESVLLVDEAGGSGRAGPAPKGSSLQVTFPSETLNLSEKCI
Procedure: as §1

human EP2 receptor = biological target: T3, human EP2 receptor (Homo sapiens, UniProt P43116); experiment: Binding ability to human EP receptors ([3H]PGE2 displacement), EP2; conditions: membranes expressing human EP2; [3H]PGE2 3 nM; Cheng-Prusoff; read-out: pKi (M) EP2 (converted)
T3 construct: expressed in transfected cells
T3 sequence (P43116 whole entry): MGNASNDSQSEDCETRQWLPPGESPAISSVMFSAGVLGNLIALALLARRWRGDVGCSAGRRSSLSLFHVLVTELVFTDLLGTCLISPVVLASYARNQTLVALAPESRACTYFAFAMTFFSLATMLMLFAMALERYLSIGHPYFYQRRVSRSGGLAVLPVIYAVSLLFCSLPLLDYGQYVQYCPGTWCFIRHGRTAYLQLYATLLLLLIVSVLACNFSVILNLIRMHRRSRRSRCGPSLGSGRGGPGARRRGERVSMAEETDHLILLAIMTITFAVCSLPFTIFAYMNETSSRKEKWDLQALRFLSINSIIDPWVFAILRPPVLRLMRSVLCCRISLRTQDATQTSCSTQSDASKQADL
Procedure: as §1

[1] = biological target: T4, human EP2 prostanoid receptors (Homo sapiens, UniProt P43116); experiment: Agonist activity at recombinant human EP2 prostanoid receptors (cAMP in HEK-293 clones); format: cell-based; conditions: for EC50: HEK-293 stably transfected with human EP2, cAMP accumulation, read-out: pEC50 EP2 (converted); for activity (EP2 part): functional classification at EP2
T4 construct: expressed in transfected cells; host or cells: HEK-293
T4 sequence (P43116 whole entry): as above
Procedure: Culture media was Minimal essential media (MEM), supplemented with 10% foetal bovine serum, 100 U/ml penicillin, […] streptomycin, 2.5 μg/ml fungizone, 2mM glutamine. Cells were cultured to confluency (3-4 days) prior to use. Culture media was removed, and confluent cells washed three times in MEM. […] Cells were then stimulated by the addition of 25 μl of PGE2 or agonists prepared in assay buffer. In antagonist studies, cells were pre-incubated with compounds for 30 minutes prior to PGE2-mediated stimulation Plates were incubated for 15 min at 37° C., before termination of the reaction by the addition of 25 μl 1M HCl. The plate was then frozen at -20° C. overnight before determination of cAMP concentration. Stimulated cAMP levels were determined by radioligand displacement binding. In brief, plates were thawed rapidly in a waterbath, and the samples neutralised by the addition of 25 μl 1M NaOH. 30 μl was transferred to Millipore plates pre-coated with 0.5% Polyethylenimine (PEI). Samples were diluted by addition of 90 μl cAMP determination buffer (50 mM Tris, 5 mM EDTA, pH 7.0). […] 15 μl of 2 nM (final concentration) [^3H] cAMP, and 15 μl of 3'5'-cAMP protein kinase (8 μg/well final concentration) prepared in cAMP determination buffer containing 0.1% BSA, were added to each well. Plates were incubated on ice for 2 hours, before bound and free radiolabel were separated by vacuum filtration harvesting using the Millipore vacuum manifold, using ice cold water as the termination buffer. The sealing mat was removed from the Millipore plates, and the filters allowed to dry overnight. 50 μl Microscint 0 (Packard Bioscience) was added to each well, and the plate counted using the Micro-Beta Trilux topcount ^3H program. cAMP accumulation was determined from the standard curve, and values calculated in pmoles cAMP/well. Antagonists affinities (pA2 values) were determined assuming a slope of unity and the […]-Schild equation, where pA2=log [concentration ratio-1]-log[antagonist].

| Compound | Ki (human EP3 receptor) | Ki (human EP4 receptor) | Ki (human EP2 receptor) | EC50 [1] | activity (EP2 part) [1] |
| --- | --- | --- | --- | --- | --- |
| O=C(O)Cc1cccc(NC(=O)c2ccc(-c3ccc4[nH]ccc4c3)o2)c1 [Compound 41] | > 1e-05 M | > 1e-05 M | < 1e-06 M | < 1 µM | EP2 agonist |
| O=C(O)Cc1cccc(NC(=O)c2ccc(-c3ccc(F)cc3)o2)c1 [Compound 42, (3-{[5-(4-Fluoro-phenyl)-furan-2-carbonyl]-amino}-phenyl)-acetic acid] | > 1e-05 M | > 1e-05 M | < 1e-06 M | < 0.1 µM | EP2 agonist |
| O=C(O)Cc1cccc(NC(=O)c2cc(-c3ccccc3)ccc2Cl)c1 [Compound 44, {3-[(4-Chloro-biphenyl-3-carbonyl)-amino]-phenyl}-acetic acid] | > 1e-05 M | > 1e-05 M | < 1e-06 M | < 0.1 µM | EP2 agonist |
| O=C(O)Cc1cccc(NC(=O)c2cccc(-c3ccccc3)n2)c1 [Compound 45, {3-[(6-Phenyl-pyridine-2-carbonyl)-amino]-phenyl}-acetic acid] | > 1e-05 M | > 1e-05 M | < 1e-06 M | < 0.1 µM | EP2 agonist |
| O=C(O)Cc1cccc(NC(=O)c2cccc(-c3ccccc3)c2)c1 [Compound 49, {3-[(Biphenyl-3-carbonyl)-amino]-phenyl}-acetic acid] | > 1e-05 M | > 1e-05 M | < 1e-06 M | < 0.1 µM | EP2 agonist |
| O=C(O)Cc1cccc(NC(=O)c2cc(-c3ccccc3)ccc2F)c1 [Compound 51, {3-[(4-Fluoro-biphenyl-3-carbonyl)-amino]-phenyl}-acetic acid] | > 1e-05 M | > 1e-05 M | < 1e-06 M | < 0.1 µM | EP2 agonist |
| O=C(O)Cc1cccc(NC(=O)c2cc(F)cc(-c3ccccc3)c2)c1 [Compound 52, {3-[(5-fluoro-biphenyl-3-carbonyl)-amino]-phenyl}-acetic acid] | > 1e-05 M | > 1e-05 M | < 1e-06 M | < 0.1 µM | EP2 agonist |
| O=C(O)Cc1cccc(NC(=O)c2csc(-c3ccccc3)n2)c1 [Compound 54, {3-[(2-Phenyl-thiazole-4-carbonyl)-amino]-phenyl}-acetic acid] | > 1e-05 M | > 1e-05 M | < 1e-06 M | < 1 µM | EP2 agonist |
| O=C(O)c1cccc(CNC(=O)c2ccc(-c3ccccc3)o2)c1 [Compound 57, 3-{[(5-Phenyl-furan-2-carbonyl)-amino]-methyl}-benzoic acid] | > 1e-05 M | > 1e-05 M | < 1e-05 M | < 1 µM | EP2 Agonist |
| O=C(O)CCc1cccc(NC(=O)c2ccc(-c3ccccc3)o2)c1 [Compound 62, 3-{3-[(5-Phenyl-furan-2-carbonyl)-amino]-phenyl}-propionic acid] | > 1e-05 M | > 1e-05 M | < 1e-06 M | < 0.1 µM | EP2 agonist |
| O=C(O)/C=C/c1cccc(NC(=O)c2ccc(-c3ccc(F)cc3)o2)c1 [Compound 71, 3-(3-{[5-(4-Fluoro-phenyl)-furan-2-carbonyl]-amino}-phenyl)-acrylic acid] | > 1e-05 M | > 1e-05 M | < 1e-07 M |  | EP2 agonist |
| O=C(Nc1cccc(CCO)c1)c1ccc(-c2ccccc2)o1 [Compound 74] | > 1e-05 M | > 1e-05 M | < 1e-05 M | < 10 µM |  |
| O=C(Nc1cccc(Cc2nnn[nH]2)c1)c1ccc(-c2cccc(Cl)c2)o1 [Compound 81, 5-(3-Chloro-phenyl)-furan-2-carboxylic acid [3-(1H-tetrazol-5-ylmethyl)-phenyl]-amide] | > 1e-05 M | > 1e-05 M | < 1e-07 M | < 0.1 µM | EP2 Agonist |
| O=C(Nc1cccc(Cc2nnn[nH]2)c1)c1ccc(-c2cc(Cl)cc(Cl)c2)o1 [Compound 82, 5-(3,5-Dichloro-phenyl)-furan-2-carboxylic acid [3-(1H-tetrazol-5-ylmethyl)-phenyl]-amide] | > 1e-05 M | > 1e-05 M | < 1e-07 M | < 0.1 µM | EP2 Agonist |
| O=C(Nc1cccc(Cc2nnn[nH]2)c1)c1ccc(-c2ccc(F)cc2)o1 [Compound 85, 5-(4-Fluoro-phenyl)-furan-2-carboxylic acid [3-(1H-tetrazol-5-ylmethyl)-phenyl]-amide] | > 1e-05 M | > 1e-05 M | < 1e-07 M | < 0.1 µM | EP2 Agonist |
| O=C(Nc1cccc(Cc2nnn[nH]2)c1)c1ccc(-c2ccc(Cl)cc2)o1 [Compound 87, 5-(4-Chloro-phenyl)-furan-2-carboxylic acid [3-(1H-tetrazol-5-ylmethyl)-phenyl]-amide] | > 1e-05 M | > 1e-05 M | < 1e-07 M | < 0.1 µM | EP2 Agonist |
| O=C(Nc1cccc(/C=C/c2nnn[nH]2)c1)c1ccc(-c2ccccc2)o1 [Compound 89, 5-Phenyl-furan-2-carboxylic acid {3-[2-(1H-tetrazol-5-yl)-vinyl]-phenyl}-amide] | > 1e-05 M | > 1e-05 M | < 1e-07 M | < 0.1 µM | EP2 Agonist |
| O=C(Nc1cccc(/C=C/c2nnn[nH]2)c1)c1ccc(-c2cccc(Cl)c2)o1 [Compound 90, 5-(3-Chloro-phenyl)-furan-2-carboxylic acid {3-[2-(1H-tetrazol-5-yl)-vinyl]-phenyl}-amide] | > 1e-05 M | > 1e-05 M | < 1e-07 M | < 0.1 µM | EP2 Agonist |
| O=C(Nc1cccc(Cc2nnn[nH]2)c1)c1cccc(-c2ccccc2)n1 [Compound 92, 6-Phenyl-pyridine-2-carboxylic acid [3-(1H-tetrazol-5-ylmethyl)-phenyl]-amide] | > 1e-05 M | > 1e-05 M | < 1e-06 M | < 0.1 µM | EP2 Agonist |
| O=C(Nc1cccc(Cc2nnn[nH]2)c1)c1cccc(-c2ccc(F)cc2)n1 [Compound 93, 6-(4-Fluoro-phenyl)-pyridine-2-carboxylic acid [3-(1H-tetrazol-5ylmethyl)-phenyl]-amide] | > 1e-05 M | > 1e-05 M | < 1e-07 M | < 0.1 µM | EP2 Agonist |
| O=C(Nc1cccc(Cc2nnn[nH]2)c1)c1cccc(-c2cccc(F)c2)n1 [Compound 94, 6-(3-Fluoro-phenyl)-pyridine-2-carboxylic acid [3-(1H-tetrazol-5ylmethyl)-phenyl]-amide] | > 1e-05 M | > 1e-05 M | < 1e-07 M | < 0.1 µM | EP2 Agonist |
